In the supplement of paper PMC7017272:
± gives the standard deviation of the averaged measurements.

What was measured:
Details in all cases: treatment time: 3 days
[1] = test system: UT-SCC-8; test: drug sensitivity score (DSS); higher = more sensitive; extreme values may be limits of the assay
Summary of the method: (§1)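 HPV-negative HNSCC cell lines were plated at 500 cells/well in 384-well plates, either on plastic, on wells coated with Matrigel or Myogel (500 µg/mL), or embedded in Matrigel or Myogel plus rat collagen I. Each compound was tested at five 10-fold concentrations over 3 days. Viability was measured by CellTiter-Glo 2.0 luminescence, and IC50, maximal inhibition and drug sensitivity score came from percent-inhibition dose–response curves fitted in the FIMM pipeline after normalisation to vehicle (0.1% DMSO) and cell-killing control wells.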

[2] = test system: UT-SCC-24B; test: as above
Summary of the method: as §1

[3] = test system: UT-SCC-42B; test: as above
Summary of the method: as §1

[4] = test system: UT-SCC-73; test: as above
Summary of the method: as §1

[5] = test system: UT-SCC-81; test: as above
Summary of the method: as §1

[6] = test system: UT-SCC-40; test: as above
Summary of the method: as §1

[7] = test system: UT-SCC-106A; test: as above
Summary of the method: as §1

[8] = test system: UT-SCC-44; test: as above
Summary of the method: as §1

[9] = test system: UT-SCC-42A; test: as above
Summary of the method: as §1

[10] = test system: UT-SCC-28; test: as above
Summary of the method: as §1

[11] = test system: UT-SCC-14; test: as above
Summary of the method: as §1

[12] = test system: UT-SCC-24A; test: relative IC50 (midpoint of the fitted curve; maximal inhibition may be below 50%); higher = less potent
Description: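 HNSCC cell lines (500 cells/well, 384-well) were cultured on plastic, on top of (2D) or embedded (3D) in Matrigel or human leiomyoma matrix Myogel (500 ug/mL; Myogel 3D mixed with rat collagen I). Cells were treated for 3 days with 5 ten-fold concentrations of each drug, and viability was read by CellTiter-Glo. Viability was normalised to DMSO (0% inhibition) and 100 uM benzethonium chloride (100% inhibition) controls and fitted with the FIMM DSRT pipeline to give IC50 (nM), maximal % inhibition and the drug sensitivity score (DSS). Suffixes _1/_2/_3 on drug names are replicates.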

[13] = test system: UT-SCC-42B; test: relative IC50 (midpoint of the fitted curve; maximal inhibition may be below 50%); higher = less potent
Summary of the method: as §1

[14] = test system: UT-SCC-73; test: as above
Summary of the method: as §1

[15] = test system: UT-SCC-81; test: as above
Summary of the method: as §1

[16] = test system: UT-SCC-44; test: as above
Summary of the method: as §1

[17] = test system: UT-SCC-42A; test: as above
Summary of the method: as §1

[18] = test system: UT-SCC-14; test: as above
Summary of the method: as §1

[19] = culture condition: embedded in Matrigel
[20] = culture condition: embedded in Myogel + collagen I
[21] = culture condition: on top of Matrigel
[22] = culture condition: on top of Myogel
[23] = culture condition: plastic 2D (no matrix)

Cc1c(CN2CCN(C(=O)[C@H](C)O)CC2)sc2c(N3CCOCC3)nc(-c3cnc(N)nc3)nc12 [Apitolisib]
drug sensitivity score [1, 19]: 9.63 ± 0.38 DSS
drug sensitivity score [1, 20]: 6.2 ± 2.1 DSS
drug sensitivity score [1, 21]: 9.23 ± 0.51 DSS
drug sensitivity score [1, 22]: 9.13 ± 1 DSS
drug sensitivity score [1, 23]: 9.17 ± 0.32 DSS
drug sensitivity score [2, 19]: 10.8 ± 1.8 DSS
drug sensitivity score [2, 20]: 11.8 ± 1.1 DSS
drug sensitivity score [2, 21]: 10.6 ± 0.76 DSS
drug sensitivity score [2, 22]: 9.6 ± 0.2 DSS
drug sensitivity score [2, 23]: 11.1 ± 1 DSS
drug sensitivity score [3, 19]: 7.13 ± 2.4 DSS
drug sensitivity score [3, 21]: 5.47 ± 0.81 DSS
drug sensitivity score [3, 22]: 4.4 ± 1 DSS
drug sensitivity score [3, 23]: 4.43 ± 0.93 DSS
drug sensitivity score [4, 19]: 9 ± 1.2 DSS
drug sensitivity score [4, 20]: 8.2 ± 1.4 DSS
drug sensitivity score [4, 21]: 7.8 ± 0.36 DSS
drug sensitivity score [4, 22]: 7.37 ± 0.15 DSS
drug sensitivity score [4, 23]: 7.23 ± 1.2 DSS
drug sensitivity score [5, 19]: 14.9 ± 3 DSS
drug sensitivity score [5, 20]: 10.4 ± 0.81 DSS
drug sensitivity score [5, 21]: 8.87 ± 0.71 DSS
drug sensitivity score [5, 22]: 8.53 ± 1.1 DSS
drug sensitivity score [5, 23]: 8.8 ± 1.8 DSS
drug sensitivity score [6, 19]: 9.4 ± 0.27 DSS
drug sensitivity score [6, 20]: 7.23 ± 0.25 DSS
drug sensitivity score [6, 21]: 8.07 ± 0.49 DSS
drug sensitivity score [6, 22]: 5.3 ± 1.7 DSS
drug sensitivity score [6, 23]: 6.33 ± 1.2 DSS
drug sensitivity score [7, 19]: 11.7 ± 0.66 DSS
drug sensitivity score [7, 20]: 6.97 ± 1 DSS
drug sensitivity score [7, 21]: 10.8 ± 0.35 DSS
drug sensitivity score [7, 22]: 6.23 ± 0.6 DSS
drug sensitivity score [7, 23]: 9.27 ± 1 DSS
drug sensitivity score [8, 19]: 9.77 ± 0.86 DSS
drug sensitivity score [8, 20]: 6.17 ± 1.4 DSS
drug sensitivity score [8, 21]: 8.4 ± 0.1 DSS
drug sensitivity score [8, 22]: 8.03 ± 2.9 DSS
drug sensitivity score [8, 23]: 6.67 ± 0.55 DSS
drug sensitivity score [9, 19]: 7.43 ± 0.45 DSS
drug sensitivity score [9, 20]: 8.1 ± 1.3 DSS
drug sensitivity score [9, 21]: 8.03 ± 1.3 DSS
drug sensitivity score [9, 22]: 7.07 ± 0.4 DSS
drug sensitivity score [9, 23]: 8.8 ± 1.1 DSS
drug sensitivity score [10, 19]: 10.4 ± 1.3 DSS
drug sensitivity score [10, 20]: 9 ± 2 DSS
drug sensitivity score [10, 21]: 12.4 ± 1.5 DSS
drug sensitivity score [10, 23]: 10.8 ± 0.51 DSS
drug sensitivity score [11, 19]: 8.77 ± 1.1 DSS
drug sensitivity score [11, 20]: 6.9 ± 1.9 DSS
drug sensitivity score [11, 21]: 7.97 ± 1.6 DSS
drug sensitivity score [11, 22]: 6.43 ± 1.1 DSS
drug sensitivity score [11, 23]: 6.47 ± 1.7 DSS
relative IC50 [12, 19]: 0.577 µM
relative IC50 [12, 20]: 0.436 µM
relative IC50 [12, 21]: 0.483 µM
relative IC50 [12, 22]: 0.818 µM
relative IC50 [12, 23]: 0.416 µM
relative IC50 [13, 19]: 1.9 µM
relative IC50 [13, 21]: 2.32 µM
relative IC50 [13, 22]: 2.16 µM
relative IC50 [13, 23]: 2.39 µM
relative IC50 [14, 19]: 1.11 µM
relative IC50 [14, 20]: 1.17 µM
relative IC50 [14, 21]: 1.45 µM
relative IC50 [14, 22]: 1.54 µM
relative IC50 [14, 23]: 1.67 µM
relative IC50 [15, 19]: 0.396 µM
relative IC50 [15, 20]: 0.748 µM
relative IC50 [15, 21]: 1.3 µM
relative IC50 [15, 22]: 1.04 µM
relative IC50 [15, 23]: 1.14 µM
relative IC50 [16, 19]: 0.279 µM
relative IC50 [16, 20]: 1.45 µM
relative IC50 [16, 21]: 0.452 µM
relative IC50 [16, 23]: 1.13 µM
relative IC50 [17, 19]: 1.51 µM
relative IC50 [17, 20]: 1.11 µM
relative IC50 [17, 21]: 1.32 µM
relative IC50 [17, 22]: 1.41 µM
relative IC50 [17, 23]: 1.09 µM
relative IC50 [18, 19]: 1.21 µM
relative IC50 [18, 20]: 1.81 µM
relative IC50 [18, 21]: 1.51 µM
relative IC50 [18, 22]: 1.93 µM
relative IC50 [18, 23]: 2 µM

Cn1cnc2c(F)c(Nc3ccc(Br)cc3F)c(C(=O)NOCCO)cc21 [Binimetinib]
drug sensitivity score [1, 19]: 5.73 ± 4.6 DSS
drug sensitivity score [1, 20]: 1.97 ± 3.4 DSS
drug sensitivity score [1, 21]: 3.73 ± 2.5 DSS
drug sensitivity score [1, 22]: 4.67 ± 4.2 DSS
drug sensitivity score [1, 23]: 3.83 ± 3.4 DSS
drug sensitivity score [2, 19]: 6.43 ± 1 DSS
drug sensitivity score [2, 20]: 6.03 ± 2.4 DSS
drug sensitivity score [2, 21]: 5.6 ± 0.53 DSS
drug sensitivity score [2, 22]: 2.7 ± 0.61 DSS
drug sensitivity score [2, 23]: 9.3 ± 1.2 DSS
drug sensitivity score [3, 19]: 16 ± 0.97 DSS
drug sensitivity score [3, 21]: 7.13 ± 3.2 DSS
drug sensitivity score [3, 22]: 1.77 ± 0.51 DSS
drug sensitivity score [3, 23]: 3.47 ± 0.32 DSS
drug sensitivity score [4, 19]: 14.6 ± 0.67 DSS
drug sensitivity score [4, 20]: 9.93 ± 3.5 DSS
drug sensitivity score [4, 21]: 14.3 ± 0.8 DSS
drug sensitivity score [4, 22]: 8.03 ± 1.4 DSS
drug sensitivity score [4, 23]: 12 ± 1 DSS
drug sensitivity score [5, 19]: 20.4 ± 0.21 DSS
drug sensitivity score [5, 20]: 0.933 ± 0.55 DSS
drug sensitivity score [5, 21]: 11 ± 1.7 DSS
drug sensitivity score [5, 22]: 3.7 ± 1.1 DSS
drug sensitivity score [5, 23]: 4.4 ± 0.69 DSS
drug sensitivity score [6, 19]: 16.3 ± 2.6 DSS
drug sensitivity score [6, 20]: 10.8 ± 4.3 DSS
drug sensitivity score [6, 21]: 11.7 ± 2.1 DSS
drug sensitivity score [6, 22]: 5.87 ± 1.8 DSS
drug sensitivity score [6, 23]: 7.63 ± 2 DSS
drug sensitivity score [7, 19]: 11.8 ± 0.81 DSS
drug sensitivity score [7, 20]: 0.567 ± 0.9 DSS
drug sensitivity score [7, 21]: 12.8 ± 2.5 DSS
drug sensitivity score [7, 22]: 1.67 ± 0.47 DSS
drug sensitivity score [7, 23]: 11.7 ± 0.51 DSS
drug sensitivity score [8, 19]: 13.9 ± 2.2 DSS
drug sensitivity score [8, 20]: 3.57 ± 1 DSS
drug sensitivity score [8, 21]: 11.4 ± 0.57 DSS
drug sensitivity score [8, 22]: 5.07 ± 1.4 DSS
drug sensitivity score [8, 23]: 7.77 ± 4.3 DSS
drug sensitivity score [9, 19]: 11.2 ± 1.7 DSS
drug sensitivity score [9, 20]: 5.2 ± 2.5 DSS
drug sensitivity score [9, 21]: 12.8 ± 2.1 DSS
drug sensitivity score [9, 22]: 5.1 ± 2.7 DSS
drug sensitivity score [9, 23]: 7.97 ± 0.65 DSS
drug sensitivity score [10, 19]: 6.5 ± 2.1 DSS
drug sensitivity score [10, 20]: 0 DSS
drug sensitivity score [10, 21]: 4.43 ± 1.8 DSS
drug sensitivity score [10, 23]: 2.87 ± 2.4 DSS
drug sensitivity score [11, 19]: 6 ± 4.4 DSS
drug sensitivity score [11, 20]: 4.73 ± 3.5 DSS
drug sensitivity score [11, 21]: 5.1 ± 3.6 DSS
drug sensitivity score [11, 22]: 4.27 ± 4.4 DSS
drug sensitivity score [11, 23]: 2.27 ± 2 DSS
relative IC50 [12, 21]: 0.00541 µM
relative IC50 [12, 22]: 0.0173 µM
relative IC50 [12, 23]: 0.00648 µM
relative IC50 [13, 19]: 0.00972 µM
relative IC50 [13, 21]: 0.0478 µM
relative IC50 [13, 23]: 0.0543 µM
relative IC50 [14, 19]: 0.0282 µM
relative IC50 [14, 21]: 0.0237 µM
relative IC50 [14, 22]: 0.0653 µM
relative IC50 [14, 23]: 0.0279 µM
relative IC50 [15, 19]: 0.00922 µM
relative IC50 [15, 20]: 0.175 µM
relative IC50 [15, 21]: 0.0532 µM
relative IC50 [15, 22]: 0.0149 µM
relative IC50 [15, 23]: 0.0744 µM
relative IC50 [16, 19]: 0.0196 µM
relative IC50 [16, 22]: 0.0413 µM
relative IC50 [17, 19]: 0.0138 µM
relative IC50 [17, 21]: 0.00875 µM
relative IC50 [17, 22]: 0.0149 µM
relative IC50 [17, 23]: 0.0255 µM
